Assay results taken from patent US6827926B2, “Metallotetrapyrrolic photosensitizing agents for use in photodynamic therapy” (Miravant Pharmaceuticals, Inc., priority 2001, dated 2004).
Read-outs that look alike come from different tables or passages of the source.

Assays:
[1] = system: V79 (Chinese Hamster Lung Fibroblasts) cells; assay: In vitro cytotoxicity assay (light EC50, Alamar blue); format: cell-based
Outline: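 V79 cells in phenol-free 5% FBS/DMEM exposed 24 h to photosensitizer at final 0.01–5.0 μM, six replicates, then washed and light-treated, with a dark plate as control. Survival by Alamar blue after 24 h dark incubation, read at 570/600 nm.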

[2] = system: normal skin of CD Hairless male rats; format: in vivo, rat
Outline: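 Liposomal egg yolk phospholipid photosensitizer given as single i.v. tail-vein bolus at 1, 1.5 and 2 μmol/kg; skin spots irradiated with 532 nm laser (150 mW/cm^2, 150J, 1 cm) at 1, 6, 24, 48, 96 hrs post injection. Value is time of last observed skin response spot.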

[3] = system: normal uninjured rat carotid arteries (medial and adventitial cell populations); assay: In vivo rat carotid artery acellularity after PDT; parameters: species or system Sprague Dawley rats; settings: for Max % rat Artery Accelularity: Table 3; for Max % Rat Artery Acceluarity: Table 5
Outline: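 Metallated photosensitizers light-activated in normal uninjured rat left common carotid via balloon catheter introduced through femoral arteriotomy under isoflurane; excitation 575 nm (Ga, Zn, Al, Sn) or 532 nm (Pt). Arteries harvested 3 days post-treatment, H&E-stained; medial and adventitial cell density assessed by light microscopy.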

[4] = Systemic toxicity in animals near the therapeutic dose; settings: 3× the therapeutic dose
[5] = system: skin of Sprague Dawley rats; assay: Topical in-vivo skin response, Sprague Dawley rats (single topical dermal application)
[6] = Table 3 porphyrins, 24 h drug incubation, 532 nm, 1.25 J/cm^2, read-out: In Vitro EC50 Light
[7] = Table 3, time of last skin spot observed post injection, 1 μmol, 532 nm laser
[8] = drug dose 1 μMol, 50 J/cm^2, 3 days post treatment
[9] = Table 4 azaporphyrins, 575 nm (Pt azaporphyrins 532 nm), 1.25 J/cm^2, read-out: In Vitro EC(50)
[10] = Table 4, drug dose 1 μMol, 575 nm (Pt 532 nm)
[11] = Table 5 plant derived gallium porphyrins, light, read-out: In Vitro EC(50)

Normal skin Response (1 μmol) ([2]; rat, in vivo) [h]	Compound	EC50 [1, 6] [nM]	Max % rat Artery Accelularity [3, 8] [%]	further results
–	CCC1=C(C)c2cc3[n-]c(cc4nc(cc5[n-]c(cc1n2)c(C)c5CC)C(C)=C4CCCC(=O)OC)c(CCCC(=O)OC)c3C.[Cl-].[In+3] [Example 46, Indium Chloride 8,13-diethyl-3,7,12,17-tetramethylporphyrin-2,18-di(butanoic acid methyl ester)]	40	90	Normal skin Response (1 μmol) [2, 7]: 48 h; toxicity in animals [4]: death occurs in the animals at 3× the therapeutic dose
–	CCCOC(=O)CCC1=C(C)c2cc3[n-]c(cc4nc(cc5[n-]c(cc1n2)c(CCC(=O)OCCC)c5C)C(CC)=C4C)c(CC)c3C.[Cl-].[Ga+3] [Example 3, Gallium Chloride Mesoporphyrin Dipropyl Ester]	60	85	Normal skin Response (1 μmol) [2, 7]: 6 h; delay of hair regrowth ([5]; topical 0.14 mg/cm^2): approximately 21 days; skin response ([5]; topical 0.14 mg/cm^2): no skin response; clearing formation of the skin first seen, time post light treatment ([5]; topical 0.28 mg/cm^2): 7 days; delay of hair regrowth in the treatment site post light treatment ([5]; topical 0.28 mg/cm^2): approximately 38 days; persistence of clearing formation of the skin ([5]; topical 0.28 mg/cm^2): at least 28 days; clearing formation, duration ([5]; topical 0.6 mg/cm^2): at least 30 days; skin responses (small, slight eschar), duration post light treatment ([5]; topical 0.6 mg/cm^2): approximately 10 days; time hair did not regrow in the treatment site post light treatment ([5]; topical 0.6 mg/cm^2): approximately 38 days; variable clearing persisting post light treatment ([5]; topical 0.6 mg/cm^2): up to 3 months
96	CCC1=C(CC)C2=[N+]3C1=Nc1c(CC)c(CC)c4[n]1[Sn-2]31([Cl])([Cl])[n]3c(c(C)c(CCC(=O)OC)c3=CC3=[N+]1C(=C4)C(C)=C3CCC(=O)OC)=C2 [Example 82, Tin(IV)dichloride 7,8,12,13-tetraethyl-12,17-dimethyl-10-azaporphyrin-2,18-di(propionic acid methyl ester)]	–	–	EC50 [1, 9]: 400 nM; Max % Rat Artery Accelularity [3, 10]: 30%
6	Gallium Chloride Chloroporphyrin e6 Trimethyl Ester [Example 13]	–	–	EC50 [1, 11]: 400 nM; Max % Rat Artery Acceluarity ([3]; drug dose 1 μMol): 70%
24	CCC1=C(C)c2cc3[n-]c(cc4nc(cc5[n-]c(cc1n2)c(C)c5CC)C(C)=C4CCCO)c(CCCO)c3C.[Pt+2] [Example 74, Platinum 8,13-diethyl-3,7,12,17-tetramethylporphryin-2,18-di(3′-hydroxypropyl)]	100	25	–
48	CCC1=C(C)C2=[N+]3C1=Cc1c(C)c(CC)c4[n]1[In-2]31([Cl])[n]3c(c(C)c(CCC(=O)NC)c3=CC3=[N+]1C(=C4)C(C)=C3CCC(=O)NC)=C2 [Example 59, Indium Chloride Mesoporphyrin N-methylamide]	170	60	–
96	CC1=Cc2cc3[n-]c(cc4nc(cc5[n-]c(cc1n2)cc5C)C(C)=C4CCC(=O)OCCCCl)c(CCC(=O)OCCCCl)c3C.[Cl-].[Ga+3] [Example 36, Gallium Chloride Deuteroporphyrin di (3-chloropropylester)]	400	80	–
–	CCCCCCNC(=O)CCC1=C(C)C2=Cc3c(C)c(CC)c4[n]3[Ga-2]35([Cl])[n]6c(c(C)c(CCC(=O)NCCCCCC)c6=CC1=[N+]23)=CC1=[N+]5C(=C4)C(C)=C1CC [M=Ga R1=Et R3=Me R4=Et R2=CONH(Hexyl)]	400	60	Normal skin Response (1 μmol) [2, 7]: 96 h; normal skin responses, time post drug injection ([2]; rats, drug dose 1 μmol/Kg): 96 h
–	C=CC1=C(C)c2nc1cc1[n-]c(cc3nc(cc4[n-]c(n2)c(C)c4CCC(=O)OC)C(CCC(=O)OC)=C3C)c(C=C)c1C.[Cl-].[Ga+3] [Example 19, Gallium Chloride 5-azaprotoporphyrin IX Dimethyl Ester]	–	–	EC50 [1, 9]: 400 nM; Normal skin Response (1 μmol) ([2]; Table 4, time of last skin spot observed post injection, 1 μmol): 24 h; Max % Rat Artery Accelularity [3, 10]: 55%
6	CCC1=C(C)C2=Cc3c(CC)c(C)c4[n]3[Ga-2]35([Cl])[n]6c(c(C)c(C(=O)NC)c6=CC6=[N+]3C(=C4)C(C)=C6CCC(=O)O)=CC1=[N+]25 [M=Ga R1=CO2H R2=Et R3=Et R4=CONHMe R5=H]	–	–	EC50 [1, 11]: 500 nM; Max % Rat Artery Acceluarity ([3]; drug dose 1 μMol): 50%
24	CCC1=C(C)c2cc3[n-]c(cc4nc(cc5[n-]c(cc1n2)c(C)c5CC)C(C)=C4CCCCC(=O)[O-])c(CCCCC(=O)[O-])c3C.[Ga+3].[Na+].[Na+].[OH-] [Example 114, Gallium Hydroxy 8,13-diethyl-3,7,12,17-tetramethylporphyrin-2,18-di(pentanoic acid sodium salt)]	2300	20	–
–	Gallium Chloride 3,7,14,17-tetramethyl-5,10-diazaporphyrin-2,8,12,18-tetra(propionic acid methyl ester) [Example 116]	–	–	EC50 ([1]; light EC50, metallodiazaporphyrins, read-out: In Vitro EC(50)): 350 nM; Normnal skin Response (1 μmol) ([2]; rat, in vivo): 4; Max % Rat Artery Accelularity ([3]; drug dose 1 (μMol), i.v., 50 J/cm^2, 160 mW/cm^2, Ga excited at 575 nm, sacrifice three days post treatment): 55%
48	CCC1=C(CC)C2=[N+]3C1=Nc1c(CC)c(CC)c4[n]1[Ga-2]31([Cl])[n]3c(c(C)c(CCC(=O)NC)c3=CC3=[N+]1C(=C4)C(C)=C3CCC(=O)NC)=C2 [Example 22, Gallium Chloride 7,8,12,13-tetraethyl-12,17-dimethyl-10-azaporphyrin-2,18-di(propionic acid methyl amide)]	–	–	EC50 [1, 9]: 450 nM; Max % Rat Artery Accelularity ([3]; Table 4, drug dose 0.5 μMol): 50%
24	CCOC(=O)CCCCC1=C(C)C2=Cc3c(CC)c(C)c4[n]3[Sn]([Cl])([Cl])[n]3c(c(C)c(CCCCC(=O)OCC)c3=CC1=N2)=CC1=NC(=C4)C(CC)=C1C [Example 51, Tin(IV)dichloride 8,13-diethyl-3,7,12,17-tetramethylporphyrin-2,18-di(pentanoic acid ethyl ester)]	1700	20	–
24	CCOC(=O)CCCCC1=C(C)C2=Cc3c(CC)c(C)c4[n]3[Al-2]35([Cl])[n]6c(c(C)c(CCCCC(=O)OCC)c6=CC1=[N+]23)=CC1=[N+]5C(=C4)C(CC)=C1C [Example 54, Aluminum Chloride 8,13-diethyl-3,7,12,17-tetramethylporphyrin-2,18-di(pentanoic acid ethyl ester)]	4000	0	–
–	CCCOC(=O)CCCC1=C(C)C2=Cc3c(CC)c(C)c4[n]3[Ga]([Cl])[n]3c(c(C)c(CCCC(=O)OCCC)c3=CC1=N2)=CC1=NC(=C4)C(CC)=C1C [Example 50, Gallium 8,13-diethyl-3,7,12,17-tetramethylporphyrin-2,18-di(butanoic acid propyl ester)]	400	80	Normal skin Response (1 μmol) [2, 7]: 48 h
–	CC1=Cc2cc3[n-]c(cc4nc(cc5[n-]c(cc1n2)cc5C)C(C)=C4CCC(=O)OCCF)c(CCC(=O)OCCF)c3C.[Cl-].[Ga+3] [Example 37, Gallium Chloride Deuteroporphyrin di (2-fluoroethylester)]	400	80	Normal skin Response (1 μmol) [2, 7]: 48 h
–	8,13-diethyl-3,7,12,17-tetramethylporphrine-2,18-di(3′-hydroxypropyl) [Example 7a]	400	–	Normal skin Response (1 μmol) in hrs ([2]; rat, in vivo): none; Max % rat Artery Accelularity ([3]; drug dose 0.16 μMol): 7%; efficacy of free base porphyrins in the arterial rat model ([3]; at the time point, drug and light dose parameters used): poor efficacy; efficacy in the rat arterial model ([3]; drug doses up to 2 μmol/Kg): no efficacy

Compound	Normal skin Response (1 μmol) ([2]; rat, in vivo) [h]	EC50 [1, 6] [nM]	Max % rat Artery Accelularity [3, 8] [%]	further results
CCOC(=O)CCCCC1=C(C)c2cc3[n-]c(cc4nc(cc5[n-]c(cc1n2)c(CCCCC(=O)OCC)c5C)C(C)=C4CC)c(C)c3CC.[Cl-].[Ga+3] [Example 28, Gallium Chloride 8,13-diethyl-3,7,12,17-tetramethylporphyrin-2,18-di(pentanoic acid ethyl ester)]	6	400	80	–
